Patent US5607926A, “Cephalosporin antibiotics” (Microcide Pharmaceuticals, Inc., priority 1995, dated 1997)
Values after ≈ are worked out from the molar mass of the structure shown. Read-outs that look alike come from different tables or passages of the source.

Tests used:
[1] = tested on: methicillinsusceptible S. aureus strain ATCC 13709; test: Challenge strain MIC; format: cell-based; conditions: Staphylococcus aureus
Description: The compounds of the invention were evaluated against several β-lactamresistant bacteria strains by determining the minimum inhibitory concentration (MIC, μg/ml) of each compound with respect to each strain. The MIC, the lowest concentration of antibiotic which inhibits growth of the test organism, was determined by the agar dilution method.
To determine the MIC for bacterial isolates, the test compound was incorporated in a series of two-fold dilutions into liquified Mueller-Hinton agar. Upon solidification, a number of different bacterial strains were spot inoculated with a replicating device onto the agar surface. […] The procedures used in these studies have been standardized by the National Committee for Clinical Laboratory Standards (NCCLS), as per the NCCLS publication entitled METHODS FOR DILUTION ANTIMICROBIAL SUSCEPTIBILITY TESTS (1991), which is incorporated herein by reference.
Aliquots of antimicrobial agents were prepared in phosphate buffered saline (PBS) at pH 7.2. Tween 20 or DMSO was used as a solubilizing vehicle as needed. Standard methods of vortexing, sonicating and gentle heat were used to facilitate solubilizing the test agent. Typically, the concentration of the stock solution was 10× that of the highest drug concentration tested. A 1.28 mg/mL stock solution was used with a subsequent highest working concentration of 128 μg/mL. Serial two-fold dilutions were done through ≤0.25 μg/mL. Each drug level was tested in duplicate. Two-fold drug dilutions were done in sterile 50 mL tubes with a final drug volume of 5 mL. Upon the addition of 45 mL of molten agar, a 10-fold dilution resulted. Two, 25 mL. plates were then poured into 15×150 mm square Petri plates with grids and allowed to harden.
A control plate with a reference drug, either cefotaxime, vancomycin or imipenem, was used as the positive growth control. Stock concentrations of reference antibiotics were prepared and frozen at -80° C. Upon preparation, the control plates were sealed and stored in the refrigerator for up to 1 week prior to use; however, imipenem control plates had to be prepared just prior to use. All test plates were used within 24 hours of preparation.
Satisfactory results were obtained where the inoculum contained about 10^4 colony forming units (cfu) ±0.5 logs. Starting with pure cultures of the test isolates on agar plates, a few isolated colonies were transferred to a tube of nutrient broth and allowed to grow 4-6 hours at 35°-36° C. to reach log-phase growth. Dropwise addition of the broth culture to PBS was done to match a 0.5 McFarland turbidity standard equal to 10^8 cfu/mL. This was further diluted ten-fold in PBS to reach a working inoculum concentration of 10^7 cfu/mL. When 1 μL of the working inoculum was applied to the agar surface a concentration of about 10^4 cfu per spot was obtained.
Disposable sterile 1 μL loops were used to inoculate test plates, with each isolate in a designated grid on the agar plate. An alternate method of inoculation involved the use of a replica plater, a device with 48 steel pins allowing the simultaneous inoculation of multiple isolates. After the spots had dried, the plates were incubated at 35°-36° C. for 16-20 hours. Endpoints were assessed as the minimum inhibitory concentration (MIC) of antimicrobial agent.
(§1) data reported for challenge with methicillinsusceptible S. aureus strain

E. faecalis ATCC 29212 = test: In vitro antibacterial evaluation, MIC by agar dilution, E. faecalis ATCC 29212; format: cell-based; conditions: Enterococcus faecalis, ATCC29212
Procedure, shortened: (§2)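 Agar dilution MIC (μg/mL) on Mueller-Hinton agar following NCCLS: twofold compound series from 128 μg/mL down to ≤0.25 μg/mL, each level in duplicate. Spots of about 10^4 cfu from log-phase cultures were incubated 16-20 h at 35-36 °C. MIC was the lowest concentration inhibiting growth.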

S. aureus ATCC 29213 = test: In vitro antibacterial evaluation, MIC by agar dilution, S. aureus ATCC 29213; format: cell-based; conditions: Staphylococcus aureus, ATCC29213
Procedure, shortened: as §2

[2] = tested on: S. aureus 76 (Meth^R)(lac^+); test: In vitro antibacterial evaluation, MIC by agar dilution, S. aureus 76; format: cell-based; conditions: Staphylococcus aureus, read-out: MIC
Procedure, shortened: as §2

[3] = tested on: methicillinsusceptible S. aureus strain ATCC 13709; test: In vivo antibacterial evaluation, murine model for lethal bacteremic peritonitis; design: species or system S. aureus in female Swiss-Webster mice; conditions: Staphylococcus aureus, ATCC13709, sc, 72 h, two equal SC doses at challenge and 2 hours later, mice, probit, read-out: ED50
Description: Groups of 5 female Swiss-Webster mice (Simonsen, Gilroy, Calif.) each are challenged by the intraperitoneal (IP) route with ten-fold increments of a bacterial inoculum. This permits calculation of the mean lethal dose (LD50) and the LD100. For preliminary evaluation of a new antibiotic, mice are challenged IP with an LD100 titer of bacteria. In two equal doses administered at the time of bacterial challenge and 2 hours later, groups of 10 mice each are treated subcutaneously with two-fold increments of the test drug and an antibiotic of known efficacy in mice and humans (i.e., positive control). Mice are observed for 72 h. Those alive at 72 h are considered long term survivors. The total drug dose in mg/kg that protects 50% of mice in a group from death is termed the mean protective dose (PD50). PD50 s are similarly determined for several pathogens. The quantitative endpoints for the new drug are then compared with those obtained with reference antibiotics.
Six ten-fold dilutions of inoculum suspended in 0.5 mL of sterilized 7% hog gastric mucin (Sigma) are injected IP in groups of 5 mice each. A control group of 5 mice receive mucin alone. Mice are observed for 72 h. Those alive at 72 h are considered long term survivors. The mean lethal dose (LD50) and 100% lethal dose (LD100) are determined by the probit test.
For antibiotic efficacy studies, mice are challenged IP with bacterial titers that will afford an LD100 for the test strain. In two equal doses administered at the time of bacterial challenge and 2 hours later, groups of 10 mice each are treated by the subcutaneous route (SC) with twofold increments of the test antibiotic; another group is treated similarly with a reference antibiotic of known efficacy in animals and man. Drug doses can range from 0.01 to 512 mg/kg. If the drug is poorly soluble, Tween 20 or propylene glycol will be employed to solubilize the drug. Animals are observed for 72 h. The 50% protective dose (PD50) is calculated in mg/kg by the probit method. The PD50 is the same as the 50% effective dose (ED50) and the 50% curative dose (CD50). Samples of blood from the hearts of all animals that die and from half the mice that survive are cultured on brain-heart infusion agar. Animals that received a protective dosage of the test drug will be alive at 72 h, although they may appear moderately ill to very ill during the observation period. […] Most of these mice will die within 6 to 48 h. Those alive at 72 h will be considered long term survivors.
as §1

[4] = tested on: S. aureus Col8A (Meth^S)(lac^-); test: In vitro antibacterial evaluation, MIC by agar dilution, S. aureus Col8A; format: cell-based; conditions: Staphylococcus aureus
Procedure, shortened: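 Agar dilution per NCCLS (1991): two-fold dilutions from 128 μg/mL down to ≤0.25 μg/mL in Mueller-Hinton agar, each level in duplicate. Spots of about 10^4 cfu of log-phase culture; 16-20 h at 35°-36° C. MIC in μg/ml is the lowest concentration inhibiting growth.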

S. haemolyticus (Meth^R) = test: In vitro antibacterial evaluation, MIC by agar dilution, S. haemolyticus; format: cell-based; conditions: Staphylococcus haemolyticus, read-out: MIC
Procedure, shortened: as §2

P. aeruginosa ATCC 27853 = test: In vitro antibacterial evaluation, MIC by agar dilution, P. aeruginosa ATCC 27853; format: cell-based; conditions: Pseudomonas aeruginosa, ATCC27853, read-out: MIC
Procedure, shortened: as §2

E. coli ATCC 25922 = test: In vitro antibacterial evaluation, MIC by agar dilution, E. coli ATCC 25922; format: cell-based; conditions: Escherichia coli, ATCC25922, read-out: MIC
Procedure, shortened: as §2

E. faecium ATCC 35667 = test: In vitro antibacterial evaluation, MIC by agar dilution, E. faecium ATCC 35667; format: cell-based; conditions: Enterococcus faecium, ATCC35667, read-out: MIC
Procedure, shortened: as §2

[5] = ATCC13709, S. aureus ATCC 13709, read-out: Challenge str MIC
[6] = E. faecalis ATCC 29212, read-out: MIC
[7] = S. aureus ATCC 29213, read-out: MIC

SMILES	MIC [1, 5] [µg/mL]	MIC (E. faecalis ATCC 29212; [6]) [µg/mL]	MIC (S. aureus ATCC 29213; [7]) [µg/mL]	MIC [2] [µg/mL]	ED50 [3] [mg/kg]	MIC [4] [µg/mL]	MIC (S. haemolyticus (Meth^R)) [µg/mL]	MIC (P. aeruginosa ATCC 27853) [µg/mL]	MIC (E. coli ATCC 25922) [µg/mL]	MIC (E. faecium ATCC 35667) [µg/mL]	MIC ([1]; ATCC13709, read-out: Challenge str MIC) [µg/mL]	MIC (S. aureus ATCC 29213) [µg/mL]	MIC (E. faecalis ATCC 29212) [µg/mL]
CCC(CC)O/N=C(\C(=O)N[C@@H]1C(=O)N2C(C(=O)O)=C(Sc3ccnn3-c3ccccc3)CS[C@H]12)c1csc(N)n1 [Cmpd 104, (7R)-7-[(Z)-2-(aminothiazol-4-yl)-2-(3-pentyloxyimino)acetamido]-3-(1-N-phenylpyrazol-5-ylthio)-3-cephem-4-carboxylic acid]	0.5 (≈ 0.815 µM)	2 (≈ 3.26 µM)	0.5 (≈ 0.815 µM)	4 (≈ 6.52 µM)	> 10	0.5 (≈ 0.815 µM)	4 (≈ 6.52 µM)	16 (≈ 26.1 µM)	8 (≈ 13 µM)	4 (≈ 6.52 µM)			
CSCC(=O)N[C@@H]1C(=O)N2C(C(=O)O)=C(Sc3ccnn3-c3ccccc3)CS[C@H]12 [Cmpd 106, (7R)-7-[(methylthioacetyl)amino]-3-(1-N-phenylpyrazol-5-ylthio)-3-cephem-4-carboxylic acid]		4 (≈ 8.65 µM)	0.25 (≈ 0.54 µM)	8 (≈ 17.3 µM)	0.72	0.125 (≈ 0.27 µM)	32 (≈ 69.2 µM)	> 32	> 32	4 (≈ 8.65 µM)	0.125 (≈ 0.27 µM)		
O=C(CC1CC1)N[C@@H]1C(=O)N2C(C(=O)O)=C(Sc3ccnn3-c3ccccc3)CS[C@H]12 [Cmpd 107, (7R)-7-[(cyclopropylacetyl)amino]-3-(1-N-phenylpyrazol-5-ylthio)-3-cephem-4-carboxylic acid]	0.125 (≈ 0.274 µM)	8 (≈ 17.5 µM)		16 (≈ 35 µM)	1.58	0.25 (≈ 0.548 µM)	32 (≈ 70.1 µM)	> 32	> 32	8 (≈ 17.5 µM)		0.25 (≈ 0.548 µM)	
Nc1nc(/C(=N/OCC2CC2)C(=O)N[C@@H]2C(=O)N3C(C(=O)O)=C(Sc4ccnn4-c4ccccc4)CS[C@H]23)cs1 [Cmpd 108, (7R)-7-[(Z)-2-(2-aminothiazol-4-yl)-2-(cyclopropylmethyloxyimino)acetamido]-3-(1-N-phenylpyrazol-5-ylthio)-3-cephem-4-carboxylic acid]	0.5 (≈ 0.837 µM)	16 (≈ 26.8 µM)	0.5 (≈ 0.837 µM)	8 (≈ 13.4 µM)	> 10	0.5 (≈ 0.837 µM)	16 (≈ 26.8 µM)	16 (≈ 26.8 µM)	4 (≈ 6.69 µM)	16 (≈ 26.8 µM)			
O=C(CSc1ccncc1)N[C@@H]1C(=O)N2C(C(=O)O)=C(Sc3ccnn3-c3ccccc3)CS[C@H]12 [Cmpd 110, (7R)-7-[(4-pyridylthioacetyl)amino]-3-(1-N-phenylpyrazol-5-ylthio)-3-cephem-4-carboxylic acid]	0.25 (≈ 0.476 µM)	2 (≈ 3.8 µM)		8 (≈ 15.2 µM)	3.45	0.25 (≈ 0.476 µM)	> 16	> 32	> 32	2 (≈ 3.8 µM)		0.25 (≈ 0.476 µM)	
O=C(O)C1=C(Sc2ccnn2-c2ccccc2)CS[C@@H]2[C@H](NC(=O)C3SCCS3)C(=O)N12 [Cmpd 115, (7R)-7-[(2-dithiolanylcarbonyl)amino]-3-(1-N-phenylpyrazol-5-ylthio)-3-cephem-4-carboxylic acid]	0.25 (≈ 0.493 µM)	4 (≈ 7.89 µM)		8 (≈ 15.8 µM)	3.04	0.25 (≈ 0.493 µM)	32 (≈ 63.2 µM)	> 32	> 32	8 (≈ 15.8 µM)		0.25 (≈ 0.493 µM)	
Cc1nnc(SCC(=O)N[C@@H]2C(=O)N3C(C(=O)O)=C(Sc4ccnn4-c4ccccc4)CS[C@H]23)s1 [Cmpd 118]	0.06 (≈ 0.11 µM)	4 (≈ 7.32 µM)	0.25 (≈ 0.457 µM)	8 (≈ 14.6 µM)	3.38	0.125 (≈ 0.229 µM)	32 (≈ 58.5 µM)	> 32	> 32	4 (≈ 7.32 µM)			
O=C(CSc1ccccc1)N[C@@H]1C(=O)N2C(C(=O)O)=C(Sc3ccnn3-c3ccccc3)CS[C@H]12 [Cmpd 119, (7R)-7-[(phenylthioacetyl)amino]-3-(1-N-phenylpyrazol-5-ylthio)-3-cephem-4-carboxylic acid]	0.25 (≈ 0.477 µM)	1 (≈ 1.91 µM)	0.125 (≈ 0.238 µM)	8 (≈ 15.2 µM)	> 5	0.06 (≈ 0.114 µM)	16 (≈ 30.5 µM)	> 32	> 32	1 (≈ 1.91 µM)			
N#CCSCC(=O)N[C@@H]1C(=O)N2C(C(=O)O)=C(Sc3ccnn3-c3ccccc3)CS[C@H]12 [Cmpd 122, (7R)-7-[(cyanomethylthioacetyl)amino]-3-(1-N-phenylpyrazol-5-ylthio)-3-cephem-4-carboxylic acid]	0.125 (≈ 0.256 µM)	4 (≈ 8.2 µM)		8 (≈ 16.4 µM)	1.13	0.25 (≈ 0.513 µM)	16 (≈ 32.8 µM)	> 32	> 32	4 (≈ 8.2 µM)		0.25 (≈ 0.513 µM)	
O=C(O)C1=C(Sc2ccnn2-c2ccccc2)CS[C@@H]2[C@H](NC(=O)/C(=N\O)c3ccccc3)C(=O)N12 [Cmpd 130, (7R)-7-[(Z)-2-(Phenyl)-2-(hydroxyimino)acetamido]-3-(1-N-(phenyl)pyrazol-5-ylthio)-3-cephem-4-carboxylic acid]	0.125 (≈ 0.24 µM)		0.125 (≈ 0.24 µM)	4 (≈ 7.67 µM)	> 10	0.25 (≈ 0.479 µM)	4 (≈ 7.67 µM)	> 32	> 32	0.5 (≈ 0.959 µM)			0.25 (≈ 0.479 µM)
